In patent US6376497B1, “Antifungal azole derivatives having a fluorinated vinyl group and process for preparing same” (Korea Research Institute of Chemical Technology, priority 1999, dated 2002):

What was measured:
Test in all cases: In vitro antifungal activity, microbroth dilution MIC
Format in all cases: cell-based
Details in all cases: RPMI-1640, 35° C., 4 to 48 hours, no growth observed
[1] = test system: Candida pseudotropicalis K. 11658
Outline: (§1)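 Broth microdilution adapted from NCCLS M27, in RPMI-1640 with 0.165 M MOPS, pH 7.0. Yeast or mould inoculum at 2×10^3 CFU/ml was mixed 1:1 with DMSO-derived compound solutions (200 to 0.10 μg/ml before mixing) and incubated at 35 °C for 4 to 48 h. MIC was the concentration showing no growth.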

Candida albicans C1-2 = test system: Candida albicans C1-2
Outline: as §1

[2] = test system: Cryptococcus neoformans IFM. 40092
Outline: as §1

[3] = test system: Trichophyton mentagrophytes B. 32663
Outline: as §1

[4] = test system: Candida parapsitosis A. 7330
Outline: as §1

[5] = test system: Candida albicans IFO. 1385
Outline: as §1

[6] = test system: Aspergillus furnigatus B. 19119
Outline: as §1

[7] = test system: Cryptococcus neoformans B. 42419
Outline: as §1

[8] = test system: Candida albicans A. 10231
Outline: as §1

[9] = test system: Candida tropicalis A. 13803
Outline: as §1

[10] = test system: Torulopsis glabrata B. 16205
Outline: as §1

[11] = test system: Trichophyton mentagrophytes A. 9129
Outline: as §1

[12] = test system: Cryptococcus neoformans A. 34144
Outline: as §1

Candida krusei K. 11655 = test system: Candida krusei K. 11655
Outline: as §1

[13] = test system: Aspergillus niger A. 16404
Outline: as §1

Cc1ccc(C(=C(F)OCC2COC(Cn3cncn3)(c3ccc(Cl)cc3Cl)O2)C(F)(F)F)cc1 (mixture of isomers) [Ex. 81]
100 µg/mL: Minimal inhibitory concentration(MIC), T. mentagrophytes B. 32663 [3] | Minimal inhibitory concentration(MIC), T. mentagrophytes A. 9129 [11]
12.5 µg/mL: Minimal inhibitory concentration(MIC), C. albicans IFO. 1385 [5]
0.78 µg/mL: Minimal inhibitory concentration(MIC), Cry. neoformans A. 34144 [12]
0.39 µg/mL: Minimal inhibitory concentration(MIC), Cry. neoformans IFM. 40092 [2]
50.0 µg/mL: Minimal inhibitory concentration(MIC), C. pseudotropicalis K. 11658 [1]
1.56 µg/mL: Minimal inhibitory concentration(MIC), Cry. neoformans B. 42419 [7]
>100 µg/mL: Minimal inhibitory concentration(MIC), C. albicans C1-2 (Candida albicans C1-2) | Minimal inhibitory concentration(MIC), C. parapsitosis A. 7330 [4] | Minimal inhibitory concentration(MIC), A furnigatus B. 19119 [6] | Minimal inhibitory concentration(MIC), C. albicans A. 10231 [8] | Minimal inhibitory concentration(MIC), C. tropicalis A. 13803 [9] | Minimal inhibitory concentration(MIC), T. glabrata B. 16205 [10] | Minimal inhibitory concentration(MIC), C. krusei K. 11655 (Candida krusei K. 11655) | Minimal inhibitory concentration(MIC), A. niger A. 16404 [13]

Cc1ccc(C(=C(F)OCC2COC(Cn3cncn3)(c3ccc(Cl)cc3Cl)O2)C(F)(F)F)cc1C (mixture of isomers) [Ex. 82]
>100 µg/mL: Minimal inhibitory concentration(MIC), C. pseudotropicalis K. 11658 [1] | Minimal inhibitory concentration(MIC), C. albicans C1-2 (Candida albicans C1-2) | Minimal inhibitory concentration(MIC), T. mentagrophytes B. 32663 [3] | Minimal inhibitory concentration(MIC), C. parapsitosis A. 7330 [4] | Minimal inhibitory concentration(MIC), A furnigatus B. 19119 [6] | Minimal inhibitory concentration(MIC), C. albicans A. 10231 [8] | Minimal inhibitory concentration(MIC), C. tropicalis A. 13803 [9] | Minimal inhibitory concentration(MIC), T. glabrata B. 16205 [10] | Minimal inhibitory concentration(MIC), T. mentagrophytes A. 9129 [11] | Minimal inhibitory concentration(MIC), C. krusei K. 11655 (Candida krusei K. 11655) | Minimal inhibitory concentration(MIC), A. niger A. 16404 [13]
12.5 µg/mL: Minimal inhibitory concentration(MIC), C. albicans IFO. 1385 [5]
0.39 µg/mL: Minimal inhibitory concentration(MIC), Cry. neoformans IFM. 40092 [2]
3.13 µg/mL: Minimal inhibitory concentration(MIC), Cry. neoformans B. 42419 [7] | Minimal inhibitory concentration(MIC), Cry. neoformans A. 34144 [12]

Cc1cc(C)cc(C(=C(F)OCC2COC(Cn3cncn3)(c3ccc(Cl)cc3Cl)O2)C(F)(F)F)c1 (mixture of isomers) [Ex. 83]
1.56 µg/mL: Minimal inhibitory concentration(MIC), Cry. neoformans IFM. 40092 [2]
>100 µg/mL: Minimal inhibitory concentration(MIC), C. pseudotropicalis K. 11658 [1] | Minimal inhibitory concentration(MIC), C. albicans C1-2 (Candida albicans C1-2) | Minimal inhibitory concentration(MIC), T. mentagrophytes B. 32663 [3] | Minimal inhibitory concentration(MIC), C. parapsitosis A. 7330 [4] | Minimal inhibitory concentration(MIC), C. albicans IFO. 1385 [5] | Minimal inhibitory concentration(MIC), A furnigatus B. 19119 [6] | Minimal inhibitory concentration(MIC), Cry. neoformans B. 42419 [7] | Minimal inhibitory concentration(MIC), C. albicans A. 10231 [8] | Minimal inhibitory concentration(MIC), C. tropicalis A. 13803 [9] | Minimal inhibitory concentration(MIC), T. glabrata B. 16205 [10] | Minimal inhibitory concentration(MIC), T. mentagrophytes A. 9129 [11] | Minimal inhibitory concentration(MIC), Cry. neoformans A. 34144 [12] | Minimal inhibitory concentration(MIC), C. krusei K. 11655 (Candida krusei K. 11655) | Minimal inhibitory concentration(MIC), A. niger A. 16404 [13]

COc1ccc(C(=C(F)OCC2COC(Cn3cncn3)(c3ccc(Cl)cc3Cl)O2)C(F)(F)F)cc1 (mixture of isomers) [Ex. 84]
0.78 µg/mL: Minimal inhibitory concentration(MIC), Cry. neoformans IFM. 40092 [2]
100 µg/mL: Minimal inhibitory concentration(MIC), C. albicans C1-2 (Candida albicans C1-2)
6.25 µg/mL: Minimal inhibitory concentration(MIC), C. albicans IFO. 1385 [5]
1.56 µg/mL: Minimal inhibitory concentration(MIC), Cry. neoformans B. 42419 [7] | Minimal inhibitory concentration(MIC), Cry. neoformans A. 34144 [12]
>100 µg/mL: Minimal inhibitory concentration(MIC), C. pseudotropicalis K. 11658 [1] | Minimal inhibitory concentration(MIC), T. mentagrophytes B. 32663 [3] | Minimal inhibitory concentration(MIC), C. parapsitosis A. 7330 [4] | Minimal inhibitory concentration(MIC), A furnigatus B. 19119 [6] | Minimal inhibitory concentration(MIC), C. albicans A. 10231 [8] | Minimal inhibitory concentration(MIC), C. tropicalis A. 13803 [9] | Minimal inhibitory concentration(MIC), T. glabrata B. 16205 [10] | Minimal inhibitory concentration(MIC), T. mentagrophytes A. 9129 [11] | Minimal inhibitory concentration(MIC), C. krusei K. 11655 (Candida krusei K. 11655) | Minimal inhibitory concentration(MIC), A. niger A. 16404 [13]

CCOc1ccc(C(=C(F)OCC2COC(Cn3cncn3)(c3ccc(Cl)cc3Cl)O2)C(F)(F)F)cc1 (mixture of isomers) [Ex. 85]
1.56 µg/mL: Minimal inhibitory concentration(MIC), Cry. neoformans B. 42419 [7] | Minimal inhibitory concentration(MIC), Cry. neoformans A. 34144 [12]
>100 µg/mL: Minimal inhibitory concentration(MIC), C. pseudotropicalis K. 11658 [1] | Minimal inhibitory concentration(MIC), T. mentagrophytes B. 32663 [3] | Minimal inhibitory concentration(MIC), C. parapsitosis A. 7330 [4] | Minimal inhibitory concentration(MIC), A furnigatus B. 19119 [6] | Minimal inhibitory concentration(MIC), C. tropicalis A. 13803 [9] | Minimal inhibitory concentration(MIC), T. glabrata B. 16205 [10] | Minimal inhibitory concentration(MIC), T. mentagrophytes A. 9129 [11] | Minimal inhibitory concentration(MIC), C. krusei K. 11655 (Candida krusei K. 11655) | Minimal inhibitory concentration(MIC), A. niger A. 16404 [13]
25.0 µg/mL: Minimal inhibitory concentration(MIC), C. albicans IFO. 1385 [5]
100 µg/mL: Minimal inhibitory concentration(MIC), C. albicans C1-2 (Candida albicans C1-2) | Minimal inhibitory concentration(MIC), C. albicans A. 10231 [8]
0.39 µg/mL: Minimal inhibitory concentration(MIC), Cry. neoformans IFM. 40092 [2]

FC(OCC1COC(Cn2cncn2)(c2ccc(Cl)cc2Cl)O1)=C(c1ccc(Cl)cc1)C(F)(F)F (mixture of isomers) [Ex. 86]
1.56 µg/mL: Minimal inhibitory concentration(MIC), Cry. neoformans B. 42419 [7] | Minimal inhibitory concentration(MIC), Cry. neoformans A. 34144 [12]
100 µg/mL: Minimal inhibitory concentration(MIC), C. albicans C1-2 (Candida albicans C1-2) | Minimal inhibitory concentration(MIC), C. albicans A. 10231 [8]
0.78 µg/mL: Minimal inhibitory concentration(MIC), Cry. neoformans IFM. 40092 [2]
12.5 µg/mL: Minimal inhibitory concentration(MIC), C. albicans IFO. 1385 [5]
>100 µg/mL: Minimal inhibitory concentration(MIC), C. pseudotropicalis K. 11658 [1] | Minimal inhibitory concentration(MIC), T. mentagrophytes B. 32663 [3] | Minimal inhibitory concentration(MIC), C. parapsitosis A. 7330 [4] | Minimal inhibitory concentration(MIC), A furnigatus B. 19119 [6] | Minimal inhibitory concentration(MIC), C. tropicalis A. 13803 [9] | Minimal inhibitory concentration(MIC), T. glabrata B. 16205 [10] | Minimal inhibitory concentration(MIC), T. mentagrophytes A. 9129 [11] | Minimal inhibitory concentration(MIC), C. krusei K. 11655 (Candida krusei K. 11655) | Minimal inhibitory concentration(MIC), A. niger A. 16404 [13]

FC(OCC1COC(Cn2cncn2)(c2ccc(Cl)cc2Cl)O1)=C(c1ccc(F)cc1)C(F)(F)F (mixture of isomers) [Ex. 87]
0.78 µg/mL: Minimal inhibitory concentration(MIC), Cry. neoformans IFM. 40092 [2]
6.25 µg/mL: Minimal inhibitory concentration(MIC), C. albicans IFO. 1385 [5]
>100 µg/mL: Minimal inhibitory concentration(MIC), C. pseudotropicalis K. 11658 [1] | Minimal inhibitory concentration(MIC), C. albicans C1-2 (Candida albicans C1-2) | Minimal inhibitory concentration(MIC), T. mentagrophytes B. 32663 [3] | Minimal inhibitory concentration(MIC), C. parapsitosis A. 7330 [4] | Minimal inhibitory concentration(MIC), A furnigatus B. 19119 [6] | Minimal inhibitory concentration(MIC), C. albicans A. 10231 [8] | Minimal inhibitory concentration(MIC), C. tropicalis A. 13803 [9] | Minimal inhibitory concentration(MIC), T. glabrata B. 16205 [10] | Minimal inhibitory concentration(MIC), T. mentagrophytes A. 9129 [11] | Minimal inhibitory concentration(MIC), C. krusei K. 11655 (Candida krusei K. 11655) | Minimal inhibitory concentration(MIC), A. niger A. 16404 [13]
1.56 µg/mL: Minimal inhibitory concentration(MIC), Cry. neoformans B. 42419 [7] | Minimal inhibitory concentration(MIC), Cry. neoformans A. 34144 [12]
